Reference: the supplement of paper PMC10307832

Columns and labels:
Assay in all cases: relative viability (nuclei count vs DMSO), 5 days (fraction); higher = more cells survive
ABC-1 = tested on: ABC-1
How it was run: (§1)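 A single step with final 0.05% Triton X-100, 1% formaldehyde and 1 ug/ml Hoechst fixed the cells and stained nuclei 5 days after treatment. Lung cancer cell lines in 1536-well plates had been treated by pin tool the day after seeding with one drug alone or a fixed anchor-drug dose plus five library-drug doses (not always all listed) in √10 steps, and nuclei were counted on 4× images. Relative viability is the ratio of nuclei in treated wells to nuclei in vehicle wells, taken as the median of duplicate plates.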

COR-L 105 = tested on: COR-L 105
How it was run: as §1

ChaGo-K-1 = tested on: ChaGo-K-1
How it was run: as §1

EMC-BAC-2 = tested on: EMC-BAC-2
How it was run: as §1

EPLC-272H = tested on: EPLC-272H
How it was run: as §1

HCC-15 = tested on: HCC-15
How it was run: as §1

HCC-78 = tested on: HCC-78
How it was run: as §1

HOP-62 = tested on: HOP-62
How it was run: as §1

LXF-289 = tested on: LXF-289
How it was run: as §1

NCI-H1666 = tested on: NCI-H1666
How it was run: as §1

NCI-H1755 = tested on: NCI-H1755
How it was run: as §1

NCI-H1915 = tested on: NCI-H1915
How it was run: as §1

NCI-H1975 = tested on: NCI-H1975
How it was run: as §1

NCI-H2023 = tested on: NCI-H2023
How it was run: as §1

NCI-H2085 = tested on: NCI-H2085
How it was run: as §1

NCI-H2126 = tested on: NCI-H2126
How it was run: as §1

NCI-H3122 = tested on: NCI-H3122
How it was run: as §1

NCI-H322M = tested on: NCI-H322M
How it was run: as §1

NCI-H358 = tested on: NCI-H358
How it was run: as §1

NCI-H441 = tested on: NCI-H441
How it was run: as §1

UMC-11 = tested on: UMC-11
How it was run: as §1

## O=c1cc(-c2cccc3c2Sc2ccccc2S3)oc(N2CCOCC2)c1 + Nc1ncn([C@H]2C[C@H](O)[C@@H](CO)O2)c(=O)n1 [Decitabine] (partner 2 µM)
ABC-1; first compound 0.08 µM
  relative viability: 0.993
ABC-1; first compound 0.253 µM
  relative viability: 1.16
ABC-1; first compound 0.8 µM
  relative viability: 1.33
ABC-1; first compound 2.53 µM
  relative viability: 1.17
ABC-1; first compound 8 µM
  relative viability: 1.19
COR-L 105; first compound 0.08 µM
  relative viability: 0.603
COR-L 105; first compound 0.253 µM
  relative viability: 0.568
COR-L 105; first compound 0.8 µM
  relative viability: 0.583
COR-L 105; first compound 2.53 µM
  relative viability: 0.612
COR-L 105; first compound 8 µM
  relative viability: 0.74
ChaGo-K-1; first compound 0.08 µM
  relative viability: 0.542
ChaGo-K-1; first compound 0.253 µM
  relative viability: 0.555
ChaGo-K-1; first compound 0.8 µM
  relative viability: 0.541
ChaGo-K-1; first compound 2.53 µM
  relative viability: 0.51
ChaGo-K-1; first compound 8 µM
  relative viability: 0.555
EMC-BAC-2; first compound 0.08 µM
  relative viability: 0.91
EMC-BAC-2; first compound 0.253 µM
  relative viability: 1.1
EMC-BAC-2; first compound 0.8 µM
  relative viability: 1.01
EMC-BAC-2; first compound 2.53 µM
  relative viability: 1.04
EMC-BAC-2; first compound 8 µM
  relative viability: 1.12
EPLC-272H; first compound 0.08 µM
  relative viability: 0.341
EPLC-272H; first compound 0.253 µM
  relative viability: 0.409
EPLC-272H; first compound 0.8 µM
  relative viability: 0.363
EPLC-272H; first compound 2.53 µM
  relative viability: 0.343
EPLC-272H; first compound 8 µM
  relative viability: 0.366
HCC-15; first compound 0.08 µM
  relative viability: 0.677
HCC-15; first compound 0.253 µM
  relative viability: 0.807
HCC-15; first compound 0.8 µM
  relative viability: 0.64
HCC-15; first compound 2.53 µM
  relative viability: 0.589
HCC-15; first compound 8 µM
  relative viability: 0.579
HCC-78; first compound 0.08 µM
  relative viability: 0.653
HCC-78; first compound 0.253 µM
  relative viability: 0.906
HCC-78; first compound 0.8 µM
  relative viability: 0.647
HCC-78; first compound 2.53 µM
  relative viability: 0.664
HCC-78; first compound 8 µM
  relative viability: 0.74
HOP-62; first compound 0.08 µM
  relative viability: 0.206
HOP-62; first compound 0.253 µM
  relative viability: 0.221
HOP-62; first compound 0.8 µM
  relative viability: 0.187
HOP-62; first compound 2.53 µM
  relative viability: 0.228
HOP-62; first compound 8 µM
  relative viability: 0.234
LXF-289; first compound 0.08 µM
  relative viability: 0.389
LXF-289; first compound 0.253 µM
  relative viability: 0.465
LXF-289; first compound 0.8 µM
  relative viability: 0.42
LXF-289; first compound 2.53 µM
  relative viability: 0.439
LXF-289; first compound 8 µM
  relative viability: 0.416
NCI-H1666; first compound 0.08 µM
  relative viability: 0.664
NCI-H1666; first compound 0.253 µM
  relative viability: 0.799
NCI-H1666; first compound 0.8 µM
  relative viability: 0.706
NCI-H1666; first compound 2.53 µM
  relative viability: 0.678
NCI-H1666; first compound 8 µM
  relative viability: 0.762
NCI-H1755; first compound 0.08 µM
  relative viability: 0.716
NCI-H1755; first compound 0.253 µM
  relative viability: 0.792
NCI-H1755; first compound 0.8 µM
  relative viability: 0.762
NCI-H1755; first compound 2.53 µM
  relative viability: 0.688
NCI-H1755; first compound 8 µM
  relative viability: 0.79
NCI-H1915; first compound 0.08 µM
  relative viability: 0.259
NCI-H1915; first compound 0.253 µM
  relative viability: 0.277
NCI-H1915; first compound 0.8 µM
  relative viability: 0.271
NCI-H1915; first compound 2.53 µM
  relative viability: 0.259
NCI-H1915; first compound 8 µM
  relative viability: 0.289
NCI-H1975; first compound 0.08 µM
  relative viability: 0.366
NCI-H1975; first compound 0.253 µM
  relative viability: 0.36
NCI-H1975; first compound 0.8 µM
  relative viability: 0.348
NCI-H1975; first compound 2.53 µM
  relative viability: 0.38
NCI-H1975; first compound 8 µM
  relative viability: 0.381
NCI-H2023; first compound 0.08 µM
  relative viability: 0.214
NCI-H2023; first compound 0.253 µM
  relative viability: 0.276
NCI-H2023; first compound 0.8 µM
  relative viability: 0.25
NCI-H2023; first compound 2.53 µM
  relative viability: 0.245
NCI-H2023; first compound 8 µM
  relative viability: 0.229
NCI-H2085; first compound 0.08 µM
  relative viability: 0.532
NCI-H2085; first compound 0.253 µM
  relative viability: 0.578
NCI-H2085; first compound 0.8 µM
  relative viability: 0.52
NCI-H2085; first compound 2.53 µM
  relative viability: 0.519
NCI-H2085; first compound 8 µM
  relative viability: 0.537
NCI-H2126; first compound 0.08 µM
  relative viability: 0.583
NCI-H2126; first compound 0.253 µM
  relative viability: 0.581
NCI-H2126; first compound 0.8 µM
  relative viability: 0.612
NCI-H2126; first compound 2.53 µM
  relative viability: 0.534
NCI-H2126; first compound 8 µM
  relative viability: 0.54
NCI-H3122; first compound 0.08 µM
  relative viability: 0.36
NCI-H3122; first compound 0.253 µM
  relative viability: 0.551
NCI-H3122; first compound 0.8 µM
  relative viability: 0.45
NCI-H3122; first compound 2.53 µM
  relative viability: 0.38
NCI-H3122; first compound 8 µM
  relative viability: 0.534
NCI-H322M; first compound 0.08 µM
  relative viability: 0.661
NCI-H322M; first compound 0.253 µM
  relative viability: 0.73
NCI-H322M; first compound 0.8 µM
  relative viability: 0.742
NCI-H322M; first compound 2.53 µM
  relative viability: 0.634
NCI-H322M; first compound 8 µM
  relative viability: 0.749
NCI-H358; first compound 0.08 µM
  relative viability: 0.199
NCI-H358; first compound 0.253 µM
  relative viability: 0.205
NCI-H358; first compound 0.8 µM
  relative viability: 0.2
NCI-H358; first compound 2.53 µM
  relative viability: 0.25
NCI-H358; first compound 8 µM
  relative viability: 0.214
NCI-H441; first compound 0.08 µM
  relative viability: 0.221
NCI-H441; first compound 0.253 µM
  relative viability: 0.232
NCI-H441; first compound 0.8 µM
  relative viability: 0.223
NCI-H441; first compound 2.53 µM
  relative viability: 0.257
NCI-H441; first compound 8 µM
  relative viability: 0.265
UMC-11; first compound 0.08 µM
  relative viability: 0.599
UMC-11; first compound 0.253 µM
  relative viability: 0.567
UMC-11; first compound 0.8 µM
  relative viability: 0.585
UMC-11; first compound 2.53 µM
  relative viability: 0.613
UMC-11; first compound 8 µM
  relative viability: 0.712
